Assays:
[1] = tested on: L4 (larva or adult worm) of different kinds of helminths (eg. trichuris spp); test: inhibition of larval migration test; type: cell-based; conditions: 100 μg/ml (combination: 50 μg/ml NTZX and 50 μg/ml MBDZ), 16 hours at 37° C., then 18 hours migration
Description: 1) In order to determine the in vitro anthelmintic effectiveness of the pharmaceutical combination of NTZX and MBDZ the “inhibition of larval migration test” was used, which was developed by […] et al. (1992) and modified by Rable et al. (1994) and Paolini et al. 2004). […] The rats of the Sprague-Dawley vivarium strain, parasites naive, were infected with different kinds of […]. Trichuria trichuris infected eggs). Approximately 3 g of feces were placed in culture bottles. The feces were cultured to produce worms or larvae (L4 stage) at a temperature of 37° C. for 72 hours. In order to determine the in vitro anthelmintic effectiveness the larval migration inhibition test was used. […] The tubes were incubated at 37° C. for 16 hours. The total content of these tubes, 0.5 ml, was transferred to the filters located within the acrylic tubes and grown at room temperature for 18 hours to allow the larvae to migrate through the filters within the chamber. Then, the filters were removed from the chambers and the total number of larvae in the filters and in chambers was counted. The larval migration inhibition (LMI) was determined using the following formula: [formula] Wherein A=larvae migrated ratio in the control and B=larvae migrated ratio in the treatments.

[2] = tested on: L4 helminth larvae; test: scale of larval motility; type: cell-based, trichuris spp; set-up: key: 0=death; 1=very low motility; 2=low motility; 3=normal motility; conditions: L4 helminth larvae in culture with drug; scale 0 to 3 points
Experimental: The rats of the Sprague-Dawley vivarium strain, parasites naive, were infected with different kinds of […]. Trichuria trichuris infected eggs). Approximately 3 g of feces were placed in culture bottles. The feces were cultured to produce worms or larvae (L4 stage) at a temperature of 37° C. for 72 hours. In order to determine the in vitro anthelmintic effectiveness the larval migration inhibition test was used. […] The tubes were incubated at 37° C. for 16 hours. The total content of these tubes, 0.5 ml, was transferred to the filters located within the acrylic tubes and grown at room temperature for 18 hours to allow the larvae to migrate through the filters within the chamber. Then, the filters were removed from the chambers and the total number of larvae in the filters and in chambers was counted. 2) Another method for the larval motility assessment was using the “scale of larval motility” in the various tubes with the different drugs and the control group. The scale of motility is a scale from 0 to 3 points, wherein 0=death; 1=very low motility; 2=low motility and 3=normal motility.

[3] = tested on: Giardia intestinalis trophozoites; test: in vitro antiprotozoal effectiveness in intestinal Giardia culture (morphology, adhesion, viability of trophozoites); conditions: for Mobility Ranking / Ranking of trophozoites adhesion: 2 μg/ml (combination 1 + 1 μg/ml)
Experimental: 1) The in vitro antiprotozoal effectiveness of the pharmaceutical combination of NTZX with […] was determined in an intestinal Giardia culture as compared with the NTZX and MBDZ active ingredients separately. In this study the morphology, the adhesion and the viability of the Giardias trophozoites was assessed in in vitro cultures.
The antiparasitic agents used were NTZX at a 2 μg/ml concentration; MBDZ at a 2 μg/ml concentration and a pharmaceutical combination of 1 μg/ml NTZX and 1 μg/ml MBDZ. The trophozoites were obtained from the intestines of rats (Sprague-Dawley vivarium strain) previously infected with Giardia intestinalis.
The trophozoites were isolated in a BI-S33 culture media containing 10% bovine serum without added antibiotic. From this media, 4.5 ml were extracted, which were separated in 8 glass tubes with screw caps. […] 4 of the tubes were exposed to the drugs for 4 hours and the other 4 tubes were exposed to the drugs for 24 hours. After the established periods of time were over (4 to 24 hours) the tubes underwent centrifugation (5 minutes at 500 rpm), where the supernatant was extracted and removed. The decanted material was then dyed with a 0.1% eosin solution to assess the viability of trophozoites: • a. The adhesion and growth uniformity of trophozoites was assessed, using an optical microscope in 5-10 fields (×100 and ×200). For this, a table was drafted describing the following:
• b. The trophozoites viability rate was assessed, by using a Neubauer camera to the optical microscope. The percentage of non-viable trophozoites was estimated as compared with the total state of trophozoites (live and immobile). • c. The mobility and morphology of the trophozoites was assessed. Mobility is divided into:
The normal morphology of trophozoites under the optical microscope is characterized by the following: unicellular organism, with pyriform morphology, bilateral symmetry, flagellated, bi-nucleated (vacuolar complex) on its dorsal face. Any change in morphology was correspondingly detailed.

[4] = 24 hours of exposure, optical microscope

SMILES | parasites migration [1] [%] | inhibition at 100 µg/mL ([1]; Trichuris, read-out: larval migration inhibition (LMI)) [%] | Motility scale [2] | Mobility Ranking ([3]; 4 hours of drug exposure) | Ranking of trophozoites adhesion ([3]; 4 hours of drug exposure) | Mobility Ranking ([3]; 24 hours of drug exposure) | Ranking of trophozoites adhesion ([3]; 24 hours of drug exposure) | microscopic morphological changes of trophozoites [3, 4] | larval migration inhibition (LMI) [1] [%] | adhered trophozoites (in words) [3, 4] | mobility of trophozoites (in words) [3, 4]
COC(=O)Nc1nc2ccc(C(=O)c3ccccc3)cc2[nH]1 [MBDZ, Mebendazole] | 30 | 70 | 1 | 2 | 4 (25-50) | 1 | 5 (50-100) | some trophozoites were globular, some folded, some of distorted forms (partial loss of bilateral symmetry) | – | – | –
CC(=O)Oc1ccccc1C(=O)Nc1ncc([N+](=O)[O-])s1 [NTZX, Nitazoxanide] | 40 | – | 2 | 2 | 5 (50-100) | 1 | 7 (250-500) | globular trophozoites (very enlarged), a moderate amount of folded trophozoites and partial loss of dorsal vacuolar complex | 60 | The amount of adhered trophozoites was moderate | A low number of motile trophozoites (mostly in situ) and erratic movements
